Here are results for one molecule from patent publication US20220280644A1, “"TRPswitch" - A STEP FUNCTION CHEMO-OPTOGENETIC LIGAND” (UNIVERSITY OF UTAH RESEARCH FOUNDATION, priority 2019, published 2022).

One data set concerns Trpa1b. Nature of the data set: Heartbeat interruption in larvae expressing Trpa1b in cardiomyocytes. The class given is in vivo, zebrafish. The settings on record: 20 μM. The protocol: Heartbeat interruption experiments were performed in vivo on 2 dpf Tg(cm/c2:Trpa1b-2A-EGFP) larvae in a Trpa1b^−/− background. Larvae were pretreated with 20 μM of TRPswitch-A or TRPswitch-B in E3 at a final concentration of 1% DMSO for 1 h in the dark at 28.5° C. before experimental manipulation. Immediately prior to the onset of experiments, E3 solution was replaced with 0.2 mg/mL tricaine (Sigma, A5040) in E3 for anesthetizing the larvae. Violet light (352-402 nm) and green light (500-600 nm) were used for E to Z and Z to E isomerization, respectively. Violet and green light excitation were achieved using a band pass filter FF01-377/50 and an et500lp long pass barrier filter, respectively, together with a t600plxxr dichroic mirror and a 300-Watt xenon bulb light source (Sutter Instrument). Experiments were performed using a NA 0.6 40× air objective at room temperature. The zebrafish heart in the whole field of view was illuminated with 1 s violet light followed by various lengths of green light as indicated. Ventricle width measurement was performed using the ImageJ ‘measure’ function on the widest outer ventricle width every 100 ms.

The test system of a further data set is Trpa1b−/− embryos. Nature of the data set: Rescue experiment, Trpa1b−/− embryos without re-expression. It is filed as in vivo, zebrafish. The settings on record: 20 μM, motion within 5 s after 1 s WL3. The procedure: (§1) For Trpa1b ohnolog and paralog rescue experiments, Trpa1b^−/− embryos were injected with ngn1:zTrpa1b-2A-mCherry (partial plasmid sequence in SEQ ID NO:5), ngn1:zTrpa1a-2A-mCherry, ngn1:hTRPA1-2A-EGFP or ngn1:mTRPA1-2A-mCherry at the 1-cell stage for mosaic Rohon-beard neuron expression. Embryos were screened at 2 dpf for fluorescent expression in Rohon-beard neurons, incubated with 20 μM TRPswitch-B for 1 hr and decapitated posterior to the eyes right before experiments. NA 0.25 5× objective and 1 s WL3 light illumination was used.
(§2) To test the potential cross activity of TRPswitch-B on the zebrafish ohnolog Trpa1a and on mammalian orthologs, zebrafish Trpa1a, mouse TRPA1 or human TRPA1 were transiently re-expressed in the Rohon-beard neurons of mutant Trpa1b^−/− zebrafish and performed light-induced motion response experiments in the presence of TRPswitch-B. Rescue experiments were performed in Trpa1b^−/− zebrafish with transient mosaic re-expression of zebrafish Trpa1b (zTrpa1b), zebrafish Trpa1a (zTrpa1a), mouse TRPA1 (mTRPA1) or human TRPA1 (hTRAP1) in Rohon-beard neurons. Embryos were pre-treated with 20 μM TRPswitch-B and decapitated right before light stimulation to eliminate the light response mediated by the retina (Table 5). […]

The next data set deals with zebrafish Trpa1b. Put plainly: Whole cell current in CCD-18Co cells transfected with zebrafish Trpa1b. The class given is cell-based. The settings on record: CCD-18Co transfected with zTrpa1b. The protocol: (§3) Immortalized HEK293T cells or human colonic fibroblast cells (CCD-18Co; ATCC) were used. HEK293T cells were plated on […] cover slips and transiently transfected with 10 μg of Trpa1b plasmid (pCMV-zTrpa1b-FLAG) (SEQ ID NO:3) and 5 μg of mNeonGreen cDNA (Allele Biotechnology), then grown in a 6 cm plate for 24-48 h. CCD-18Co were cultured in Eagle's minimal essential medium with 10% FBS, 1× penicillin and streptomycin. CCD-18Co cells were plated on 12 mm cover slips and transiently transfected with 5 μg of zTrpa1b plasmid (pCMV-zTrpa1b-FLAG) together with 5 μg of mNeonGreen cDNA (Allele Biotechnology), then grown in a […] plate for 48-72 h. After this time, the cover slips were transferred to a recording chamber containing an extracellular solution composed of 145 mM sodium gluconate, 4 mM KCl, 3 mM MgCl2, 10 mM D-glucose, 10 mM HEPES; pH 7.4 adjusted with NaOH. The internal solution contained 122 mM cesium methane sulfonate, 1.8 mM MgCl2, 9 mM EGTA, 14 mM creatine phosphate (sodium salt), 4 mM Mg-ATP, 0.3 mM Na-GTP, 10 mM HEPES, pH 7.2 adjusted with CsOH. […] Whole cell currents were measured on an Axopatch 200B amplifier (Molecular De-vices) under the control of pClamp software. […] Basal Trpa1b whole cell currents were measured with a ramp protocol (˜100 to +100 mV, at a holding potential of 0 mV). […] The p values were calculated using a two-tailed, paired Student's t-test.

Data set [1] is described as follows: UV-Vis absorbance, E/Z isomerization with violet and green light. It is filed as physicochemical. The settings on record: UV-Vis absorbance in DMSO. The protocol: Compounds were dissolved in DMSO at 250 μM and 260 μM for TRPswitch-A and TRPswitch-B, respectively and UV-Vis absorbance was measured using a NanoDrop 1000 (Thermo Scientific).
In the next data set the target is T1, mouse TRPA1 (mTRPA1) (Mus musculus, UniProt Q8BLA8).
T1 construct: 2A peptide (remnant stays on the channel) (C); mCherry (separated at the 2A site) (C, cleaved yes); expressed in transfected cells; host or cells: Rohon-Beard neurons of Trpa1b−/− zebrafish embryos, in vivo
T1 sequence (Q8BLA8 whole entry): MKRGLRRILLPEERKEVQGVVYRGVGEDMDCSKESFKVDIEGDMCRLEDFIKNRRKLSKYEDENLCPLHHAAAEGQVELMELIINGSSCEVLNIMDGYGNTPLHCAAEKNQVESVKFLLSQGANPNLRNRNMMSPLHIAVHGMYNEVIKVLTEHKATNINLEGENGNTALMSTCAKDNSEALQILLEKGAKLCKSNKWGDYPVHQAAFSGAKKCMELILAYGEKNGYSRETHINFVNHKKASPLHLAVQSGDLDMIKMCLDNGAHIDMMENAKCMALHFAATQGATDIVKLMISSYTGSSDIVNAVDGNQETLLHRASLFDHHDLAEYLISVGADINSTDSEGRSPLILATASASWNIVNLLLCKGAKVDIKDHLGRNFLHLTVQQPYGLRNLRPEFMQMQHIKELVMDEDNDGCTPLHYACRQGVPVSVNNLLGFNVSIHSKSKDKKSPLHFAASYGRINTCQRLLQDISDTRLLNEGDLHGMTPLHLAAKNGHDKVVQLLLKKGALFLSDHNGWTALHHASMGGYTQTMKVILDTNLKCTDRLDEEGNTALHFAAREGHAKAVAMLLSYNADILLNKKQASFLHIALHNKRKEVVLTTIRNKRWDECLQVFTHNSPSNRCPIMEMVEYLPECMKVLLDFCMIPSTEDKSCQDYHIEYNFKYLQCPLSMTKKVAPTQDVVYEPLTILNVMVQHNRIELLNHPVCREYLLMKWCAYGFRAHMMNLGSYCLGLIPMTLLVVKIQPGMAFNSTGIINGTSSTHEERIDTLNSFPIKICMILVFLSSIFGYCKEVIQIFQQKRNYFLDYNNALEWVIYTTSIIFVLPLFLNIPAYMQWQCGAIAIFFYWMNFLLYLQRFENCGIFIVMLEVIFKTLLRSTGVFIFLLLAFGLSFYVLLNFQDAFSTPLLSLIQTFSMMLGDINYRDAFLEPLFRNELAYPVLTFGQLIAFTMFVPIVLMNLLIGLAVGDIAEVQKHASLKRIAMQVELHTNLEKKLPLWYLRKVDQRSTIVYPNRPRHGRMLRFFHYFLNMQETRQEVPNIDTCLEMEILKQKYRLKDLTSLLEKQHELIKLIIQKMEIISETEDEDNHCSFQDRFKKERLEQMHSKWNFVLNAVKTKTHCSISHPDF
Nature of the data set: Rescue experiment, Trpa1b−/− embryos expressing mTRPA1 in Rohon-beard neurons. The class given is in vivo, zebrafish. The settings on record: 20 μM, motion within 5 s after 1 s WL3. The procedure: as §1, §2

Data set [2] relates to larvae that lack exogenous expression of Trpa1b in cardiomyocytes. Nature of the data set: Heartbeat experiment in larvae that lack exogenous expression of Trpa1b in cardiomyocytes. It is filed as in vivo, zebrafish. To be noted: no exogenous Trpa1b in cardiomyocytes.
Data set [3] can be described thus: Photostationary state (PSS) determination. It is filed as physicochemical. From the text: […] In the latter case, the pure Z isomer spectrum was estimated using methods described in previous publications.
In the next data set the target is T2, endogenous human TRPA1 (Homo sapiens, UniProt O75762).
T2 construct: human colonic fibroblast cells, CCD-18Co, which express human TRPA1 endogenously; endogenous in cells; host or cells: CCD-18Co (ATCC), untransfected
T2 sequence (O75762 whole entry): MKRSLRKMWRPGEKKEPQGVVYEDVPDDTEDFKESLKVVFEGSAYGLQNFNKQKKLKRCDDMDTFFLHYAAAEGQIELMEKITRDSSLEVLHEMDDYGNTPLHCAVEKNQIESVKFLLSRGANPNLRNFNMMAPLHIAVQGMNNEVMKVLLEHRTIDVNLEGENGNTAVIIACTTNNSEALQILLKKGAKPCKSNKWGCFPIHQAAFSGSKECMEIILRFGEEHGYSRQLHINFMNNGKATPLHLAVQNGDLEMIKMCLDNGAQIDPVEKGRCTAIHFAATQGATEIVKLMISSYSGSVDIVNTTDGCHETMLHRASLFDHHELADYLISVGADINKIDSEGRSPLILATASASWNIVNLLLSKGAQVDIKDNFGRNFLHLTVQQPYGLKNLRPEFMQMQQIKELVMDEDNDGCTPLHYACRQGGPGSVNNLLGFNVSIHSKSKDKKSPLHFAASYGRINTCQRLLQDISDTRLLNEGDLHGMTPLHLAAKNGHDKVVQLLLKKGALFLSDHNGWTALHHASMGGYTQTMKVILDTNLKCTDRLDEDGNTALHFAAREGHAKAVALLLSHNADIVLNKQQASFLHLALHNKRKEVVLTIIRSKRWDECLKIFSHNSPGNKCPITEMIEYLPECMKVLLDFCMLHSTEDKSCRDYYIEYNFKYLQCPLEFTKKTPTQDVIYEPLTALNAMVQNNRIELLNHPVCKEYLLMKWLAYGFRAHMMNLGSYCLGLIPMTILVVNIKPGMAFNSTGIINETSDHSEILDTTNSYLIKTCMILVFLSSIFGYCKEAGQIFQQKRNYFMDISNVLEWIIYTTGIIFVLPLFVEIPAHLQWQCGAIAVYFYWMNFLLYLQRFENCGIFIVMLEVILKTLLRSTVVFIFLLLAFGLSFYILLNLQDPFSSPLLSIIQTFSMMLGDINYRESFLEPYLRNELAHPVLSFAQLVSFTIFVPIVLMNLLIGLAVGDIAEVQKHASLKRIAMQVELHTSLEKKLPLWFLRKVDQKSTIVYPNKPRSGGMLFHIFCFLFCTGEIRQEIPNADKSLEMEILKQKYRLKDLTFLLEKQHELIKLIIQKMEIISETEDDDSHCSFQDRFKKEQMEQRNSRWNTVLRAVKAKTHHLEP
Put plainly: Whole cell current in untransfected CCD-18Co cells. It is filed as cell-based. The settings on record: without expression of zTrpa1b, violet and green light. The protocol: as §3

Where [4] appears, read: UV-Vis spectroscopy in 30% water:DMSO, extrapolated pure Z spectrum, listed as TRPswitch-B.

SMILES strings stand for the structures.

In the case of `Cc1nn(C)c(C)c1/N=N/c1ccc(NC(=O)c2cccs2)cc1NC(=O)c1cccs1` [Compound 9, (E)-N,N′-(4-((1,3,5-trimethyl-1H-pyrazol-4-yl)diazenyl)-1,3-phenylene)bis(thiophene-2-carboxamide)], the “ventricle heartbeat after 1 s violet light” value in the data set on Trpa1b (1 h pre-incubation) is on record as “could be stopped”. Further, the “ventricular rhythm after 1 s green light” value in the data set with Trpa1b (after violet light) was “re-stored”. For the same molecule, in the data set on Trpa1b−/− embryos, the “% response” value came out at 0%. In the data set on zebrafish Trpa1b, the “photocurrent on green light” value was “green light-induced decrease in photocurrent” and the “photocurrent on violet light” value is on record as “violet light-induced photocurrent”. Moreover, in data set [1], the “E/Z photoswitching with violet and green light” value is “quantitative photoswitching in both directions”. Further, the “E/Z photoswitching with violet and green light” value in data set [1] (listed as TRPswitch-B) is given as “complete return”. In addition, the “% response” value at mouse TRPA1 (mTRPA1) is given as 0%. For the same molecule, in data set [2], the “heartbeat switching with light illumination” value is “negative results”. Further, in data set [3] (1H NMR in DMSO-d6), the “365 nm PSS (E-Z)” value worked out at 92% Z, the “420 nm PSS (E-Z)” value came out at 55% Z and the “495 nm PSS (Z-E)” value came to 86% E. In addition, in data set [3] (setting [4]), the “Estimated 365 nm PSS (E-Z)” value is recorded as 92% Z and the “Estimated 495 nm PSS (Z-E)” value is 100% E. For the same molecule, the “light induced photocurrent / cross reaction with endogenous human TRPA1” value at endogenous human TRPA1 is “does not cross react”.
